Experiments:
Type in all cases: cell-based
[1] = tested on: Candida albicans; assay: Adhesion of Candida albicans to Buccal Epithelial Cells (adhesion assay); conditions: 1 mg/ml; yeast pre-treated 10 minutes; Diagram 8
Text: Measurement of adhesion, and inhibition of the same, requires selection of a suitable substrate and a method of enumerating number of organisms adhering (or not) to that substrate. Most potential pathogenic organisms adhere to mucosal epithelial cells and a convenient source of a representative mucosal epithelial cell may be easily harvested from inside the cheek. Buccal epithelial cells (BEC's) are harvested by scraping the mucosal membranes in the mouth using a wooden tongue depresser as follows.
Standard wooden tongue depressers as used in clinical examination of the mouth are wrapped, in tin foil and autoclaved. […]
The basis of the technique involves exposing a standardised (known) number of yeast or bacteria to a standardised substrate (number of BEC's), allowing a 60 minute incubation period for the cells to adhere and then filtering the combined population through a 10 micron nylon mesh. The mesh will retain BEC's and those yeast or bacteria adhering to them, non-adhering yeast or bacteria will be washed through, where they may be enumerated in the filtrate and expressed as a percentage of the original population not adhering; percent adherence being the inverse of this. […]
Both the washed BEC's and the freshly grown washed yeast cells are counted microscopically and the concentrations adjusted such that the yeast is in the order of 1×10^5 and BEC's at 1×10^3. […]

[2] = tested on: Streptococcus mutans; assay: Adhesion of Streptococcus mutans to hydroxyapatite beads; conditions: 0.8 mg/ml; saliva coated hydroxyapatite; Diagram 13
Text: (§1) The following general method may be used to measure adherence of the yeast Candida albicans to BEC and the inhibition of that adherence using the formulation of milk serum apoprotein(s) as described above. The same general method is suitable for measuring inhibition of adherence of Staphylococcus aureus to BEC's and also inhibition of adherence of Streptococcus mutans, with the exception that the substrate for Streptococcus mutans, is powdered hydroxylapatite available from Merck and used as a surrogate for dental enamel.
In measuring inhibition of adherence of Streptococcus mutans, hydroxyapatite powder from Merck was used as a surrogate for dental enamel. The test procedure is as described in Methods and Materials above, with the following modifications: 1 ml of fresh culture, adjusted to an optical density of 0.1 at 600 nm, is added to 5 mg of saliva coated hydroxyapatite beads; allowed to adhere for 1 hour; and centrifuged at slow speed to sediment the hydroxyapatite with adhering bacteria. The number of bacteria remaining in the supernatant are that percentage of the original population not adhering and are expressed as a percentage of the original population; the inverse being […].

[3] = tested on: methicillin resistant Staphylococcus aureus (MRSA); assay: Adhesion of MRSA to Buccal Epithelial Cells; conditions: 5 mg/ml, Diagram 11
Protocol: The basis of the technique involves exposing a standardised (known) number of yeast or bacteria to a standardised substrate (number of BEC's), allowing a 60 minute incubation period for the cells to adhere and then filtering the combined population through a 10 micron nylon mesh. The mesh will retain BEC's and those yeast or bacteria adhering to them, non-adhering yeast or bacteria will be washed through, where they may be enumerated in the filtrate and expressed as a percentage of the original population not adhering; percent adherence being the inverse of this.
Fluorescent labelling of bacteria is conducted after adhesion (on those cells in the filtrate) using fluorescent dyes such as BCECF/AM (Calbiochem Biosciences Inc., La Jolla, Calif.) and Syto 13 (Molecular Probes, Oregon, USA). Labelling methods are as described by the manufacturers of the dyes. The amount of fluorescence is measured in a fluorimeter (Fluroscan from Lab-Systems, Helsinki, Finland) and is in direct relationship to the number of bacteria present.
as §1
MRSA is routinely sub-cultured on blood agar and a single colony is used to inoculate a tube of Oxoid Brain Heart Infusion Broth as described in Methods and Materials above. After 8 hours, the innoculum is used in growth and adhesion assays using the methodologies described above.
MRSA adheres to BEC's, and these are used here in a manner similar to that described for Candida albicans. […] Bovine Serum Albumin is used as a ‘protein blank’ and this material has no effect on the adhesion of MRSA to BEC's.

Compound | inhibition of adhesion of Candida albicans to Buccal Epithelial Cell [1] [%] | inhibition of adhesion of Streptococcus mutans to hydroxyapatite beads [2] [%] | inhibition of adhesion of MRSA to Buccal Epithelial Cell [3] | inhibition of adhesion of MRSA to Buccal Epithelial Cell ([3]; listed as Sodium citrate)
Bovine Serum Albumin: protein blank in Diagrams 8, 11 and 13 | 13 | ~30 | no effect | 
O=C([O-])CC(O)(CC(=O)[O-])C(=O)[O-].[Na+].[Na+].[Na+] [sodium citrate] |  | ~10 | approximately 10% | no effect on adhesion
